Experimental data reported in patent publication US20250281476A1, “EFINACONAZOLE ORAL COMPOSITION” (priority 2020, published 2025).
Values after ≈ are worked out from the molar mass of the structure shown. Read-outs that look alike come from different tables or passages of the source. Values belong to the molecule of their own block, whether it stands above or below them.

Legend:
in vivo = details: for AUC(0-t): AUCt; for concentration at 0.5 h: read-out: Blood voriconazole concentration, Time 0.5 hr; for concentration at 1 h: read-out: Blood voriconazole concentration, Time 1 hr; for concentration at 2 h: read-out: Blood voriconazole concentration, Time 2 hr; for concentration at 4 h: read-out: Blood voriconazole concentration, Time 4 hr; for concentration at 6 h: read-out: Blood voriconazole concentration, Time 6 hr; for concentration at 8 h: read-out: Blood voriconazole concentration, Time 8 hr; for concentration at 10 h: read-out: Blood voriconazole concentration, Time 10 hr
Method: 24 male beagle dogs were divided into 4 groups, 6 animals per group. Voriconazole as a control drug was once administered to the animals via an oral route under fasting conditions. Efinaconazole as a test drug was once administered to the animals via intravenous and oral routes under fasting conditions. Thereafter, the pharmacokinetic (PK) profiles of the drugs were determined to calculate PK parameters of the drugs and evaluate the pharmacokinetics of the drugs. Specific test conditions and methods are as follows.
The test substances were weighed with an electronic balance. Each of the weighed test substances was placed in a glass container and 0.5% methylcellulose in a 1% Tween 80 solution (distilled water) as an excipient was added thereto. The mixture was vortexed and sonicated to prepare a homogeneous test material.
For intravenous administration, the doses of efinaconazole (intravenous administration group G1) were calculated based on the body weights of the animals. To the test substance was added PEG400 as an excipient whose volume corresponded to 30% of the total volume of a final test material. The mixture was vortexed and sonicated for complete dissolution. To the solution was added ethanol in an amount corresponding to 20% of the total volume of the test material, followed by homogenization by sonication. Then, 0.9% saline was added in an amount corresponding to 50% of the total volume of the test material, followed by vortexing and sonication to in situ prepare the test material in a homogeneous state.
• Routes of administration: Intravenous (IV) and oral (PO) • Doses: G1 (Voriconazole)—6 mg/5 ml/kg (PO); G2 (Efinaconazole)—6 mg/5 ml/kg (PO); G3 (Efinaconazole-Polymer)—6 mg/5 ml/kg (PO); G1 (Efinaconazole)—0.5 mg/I ml/kg (IV) • Frequency of administration: Single dose (once daily)—(QD)
4 ml of blood was collected from each point and centrifuged. 500 μl of the plasma supernatant was dispensed in a 1.5 ml EP tube and the remaining plasma was dispensed into a set of 1.5 ml EP tubes. The samples were stored in a deep freezer at −80° C. After completion of the testing, the blood collection records, sample information certificates, dispensing records, clinical symptom observation records, medication/blood collection results, and test samples (plasma samples) were sent to a specialized analysis agency.
After storage in a freezer, the samples were analyzed by LC/MS/MS and their pharmacokinetic parameters were calculated in a noncompartmental manner using “Phoenix WinNonlin (Version 8.2 or higher, Certara L. P)” software.
AUCt, a bioavailability parameter, is the area under the plasma concentration-time curve from the time of administration medication to the last time point of blood collection with a measurable concentration and was calculated by the trapezoidal formula. Cmax is the highest plasma drug concentration read from the plasma drug concentration-time curve of each sample and Tmax is the time taken to reach the highest plasma drug concentration read from the plasma drug concentration-time curve of each sample. AUC∞ is the area under the plasma concentration-time curve from the time of administration to time infinity.

[1] = Stability test of 10% solutions at room temperature and 65° C., purity by HPLC; type: physicochemical; details: solution (10%)
Method: The stability of the co-crystal of efinaconazole to temperature and a solution was evaluated and compared with that of efinaconazole by the following experimental method.
A co-crystalline form of efinaconazole was prepared.

[2] = cited from earlier work
[3] = male, beagle, dog, in vivo, 6 mg/kg, Geometric Means
[4] = male, beagle, dog, in vivo, po, 6 mg/kg, Cmax
[5] = male, beagle, dog, in vivo, po, 6 mg/kg, Geometric Means
[6] = male, beagle, dog, in vivo, po, 6 mg/kg, Geometric Means, Cmax
[7] = male, dog, in vivo, 6 mg/kg, beagle dog, fasting, single 6 mg/kg P.O, group Mean (6 animals)
[8] = male, dog, in vivo, 6 mg/kg, beagle dog, fasting, single 6 mg/kg P.O, individual animals
[9] = male, beagle, dog, in vivo, 0.5 mg/kg, Blood efinaconazole concentration, Time 12 hr

AUCt/AUC∞ (in vivo; beagle dog, fasting, single 6 mg/kg P.O, group Mean (6 animals)): 51.125
AUC(0-t) (in vivo; [3]): 53500 ng·h/mL
AUC(0-t) (in vivo; male, beagle, dog, in vivo, po, 6 mg/kg): 53900 ng·h/mL
AUC(0-inf) (in vivo; male, beagle, dog, in vivo, po, 6 mg/kg, AUC∞): 109000 ng·h/mL
Cmax (in vivo; [4]): 3670 ng/mL
AUC(0-t) (in vivo; [5]): 53500 ng·h/mL
Cmax (in vivo; [6]): 3670 ng/mL
concentration at 0.053 h (in vivo; male, dog, in vivo, 6 mg/kg, beagle dog, fasting, single 6 mg/kg P.O, group Mean (6 animals), read-out: Blood voriconazole concentration, Time 0.053 hr): 443 ng/mL
concentration at 0.25 h (in vivo; male, dog, in vivo, 6 mg/kg, beagle dog, fasting, single 6 mg/kg P.O, group Mean (6 animals), read-out: Blood voriconazole concentration, Time 0.25 hr): 2720 ng/mL
concentration at 0.5 h (in vivo; [7]): 3410 ng/mL
concentration at 1 h (in vivo; [7]): 3440 ng/mL
concentration at 2 h (in vivo; [7]): 3090 ng/mL
concentration at 4 h (in vivo; [7]): 2950 ng/mL
concentration at 6 h (in vivo; [7]): 2610 ng/mL
concentration at 8 h (in vivo; [7]): 2460 ng/mL
concentration at 10 h (in vivo; [7]): 2270 ng/mL
concentration at 12 h (in vivo; male, dog, in vivo, 6 mg/kg, beagle dog, fasting, single 6 mg/kg P.O, group Mean (6 animals), read-out: Blood voriconazole concentration, Time 12 hr): 2180 ng/mL
concentration at 24 h (in vivo; male, dog, in vivo, 6 mg/kg, beagle dog, fasting, single 6 mg/kg P.O, group Mean (6 animals), read-out: Blood voriconazole concentration, Time 24 hr): 1500 ng/mL
concentration at 0.5 h (in vivo; [8]): 3280 ng/mL
concentration at 1 h (in vivo; [8]): 3280 ng/mL
concentration at 2 h (in vivo; [8]): 3000 ng/mL
concentration at 4 h (in vivo; [8]): 2940 ng/mL
concentration at 6 h (in vivo; [8]): 2660 ng/mL
concentration at 8 h (in vivo; [8]): 2430 ng/mL
concentration at 10 h (in vivo; [8]): 2250 ng/mL
concentration at 12 h (in vivo; male, dog, in vivo, 6 mg/kg, beagle dog, fasting, single 6 mg/kg P.O, individual animals, read-out: Blood voriconazole concentration, Time 12 hr): 2160 ng/mL
concentration at 24 h (in vivo; male, dog, in vivo, 6 mg/kg, beagle dog, fasting, single 6 mg/kg P.O, individual animals, read-out: Blood voriconazole concentration, Time 24 hr): 1470 ng/mL
Cmax (in vivo; male, dog, in vivo, po, 6 mg/kg, beagle dog, fasting, single 6 mg/kg P.O, individual animals, read-out: Cmax): 3520 ng/mL
SMILES: C[C@@H](c1ncncc1F)[C@](O)(Cn1cncn1)c1ccc(F)cc1F [Voriconazole]

SMILES: C=C1CCN([C@H](C)[C@](O)(Cn2cncn2)c2ccc(F)cc2F)CC1 [Efinaconazole]
HPLC (%) After 1 week ([1]; 65° C.): 99.55%
Related substances (%) After 1 week ([1]; 65° C.): 0.45%
HPLC (%) After 2 weeks ([1]; 65° C.): 99.46%
Related substances (%) After 2 weeks ([1]; 65° C.): 0.54%
HPLC (%) After 4 weeks ([1]; 65° C.): 98.47%
Related substances (%) After 4 weeks ([1]; 65° C.): 1.53%
HPLC (%) After 1 week ([1]; room temp.): 99.73%
Related substances (%) After 1 week ([1]; room temp.): 0.27%
HPLC (%) After 2 weeks ([1]; room temp.): 99.61%
Related substances (%) After 2 weeks ([1]; room temp.): 0.39%
HPLC (%) After 4 weeks ([1]; room temp.): 99.60%
Related substances (%) After 4 weeks ([1]; room temp.): 0.40%
Blood efinaconazole concentration, Time 8 hr (in vivo; dog, in vivo, 0.5 mg/kg): BLQ
Blood efinaconazole concentration, Time 10 hr (in vivo; dog, in vivo, 0.5 mg/kg): BLQ
Blood efinaconazole concentration, Time 12 hr (in vivo; dog, in vivo, 0.5 mg/kg): BLQ
Blood efinaconazole concentration, Time 24 hr (in vivo; dog, in vivo, 0.5 mg/kg): BLQ
bioavailability compared with other antifungals when administered orally (in vivo; dog, in vivo, po): higher than those of other antifungals, including voriconazole and itraconazole
concentration at 0.053 h (in vivo; male, beagle, dog, in vivo, 0.5 mg/kg, Blood efinaconazole concentration, Time 0.053 hr): 262 ng/mL
concentration at 0.25 h (in vivo; male, beagle, dog, in vivo, 0.5 mg/kg, Blood efinaconazole concentration, Time 0.25 hr): 168 ng/mL
concentration at 12 h (in vivo; [9]): 1.36 ng/mL
concentration at 12 hr (in vivo; [9]): 3.52 ng/mL
concentration at 24 h (in vivo; male, beagle, dog, in vivo, 0.5 mg/kg, Blood efinaconazole concentration, Time 24 hr): 0 ng/mL
AUC(0-t) (in vivo; male, beagle, dog, in vivo, 0.5 mg/kg, Geometric Means): 245 ng·h/mL
Cmax (in vivo; male, beagle, dog, in vivo, 0.5 mg/kg, Geometric Means, Cmax): 318 ng/mL
bioavailability (in vivo; male, beagle, dog, in vivo, 6 mg/kg): 51.4 ± 24.6%
concentration at 2 hr (in vivo; male, beagle, dog, in vivo, 6 mg/kg, Blood efinaconazole concentration, Time 2 hr): 177 ng/mL
concentration at 4 hr (in vivo; male, beagle, dog, in vivo, 6 mg/kg, Blood efinaconazole concentration, Time 4 hr): 64.9 ng/mL
concentration at 6 hr (in vivo; male, beagle, dog, in vivo, 6 mg/kg, Blood efinaconazole concentration, Time 6 hr): 27.5 ng/mL
AUC(0-t) (in vivo; [3]): 1440 ng·h/mL
Cmax (in vivo; male, beagle, dog, in vivo, iv, 0.5 mg/kg, Cmax): 322 ± 58.6 ng/mL
Tmax (in vivo; male, beagle, dog, in vivo, iv, 0.5 mg/kg, Tmax): 4.98 min
Cmax (in vivo; [4]): 925 ± 236 ng/mL
AUC(0-t) (in vivo; [5]): 1440 ng·h/mL
Cmax (in vivo; [6]): 904 ng/mL
water solubility [2]: ~610 µg/mL (≈ 1750 µM)
